Structures are written as SMILES.

The test system of this test is corn hybrid B73 X Mo17. Kind of test: Greenhouse study Long Grove, Ill., sprayed at V1-V2, change in height and synergy (Example 7). The test is classed as in vivo. Conditions: for Change in height from day of treatment, 2 days post treatment: control 9.74; for Change in height from day of treatment, 4 days post treatment: control 22.59; for Change in height from day of treatment, 6 days post treatment: control 43.03. How it is done: A greenhouse study was conducted at Long Grove, Ill. Seeds of the corn hybrid B73 X Mo17 was sown into potted soil on May 7, 2014. Plants were sprayed at 11 days post sowing (V1-V2) with solutions containing a non-ionic surfactant (0.25%, v/v) and growth was followed for 6 days. GA3 refers to gibberellic acid and ABA refers to abscisic acid. Results of the study described in 3. above can be seen in the following tables describing change in height in centimeters from day of treatment (Table 8) and change in height in centimeters from day of treatment compared to control (Table 9).
Synergy is calculated as follows: […]
Observed difference in height from control/Expected difference in height from control, where expected difference in height from control is the sum of the observed difference in height of each active ingredient applied alone. If the ratio between the experimentally observed efficacy of the mixture and the expected efficacy of the mixture is greater than 1, than synergistic interactions are present in the mixture.

For the molecule `CC1=CC(=O)CC(C)(C)[C@@]1(O)/C=C/C(C)=C\C(=O)O` [ABA, abscisic acid], for the setting “ABA 8.6 ppm alone”, the “Observed change in height from day of treatment compared to control, 2 days post treatment” value (shortened to “Observed change … 2 days post treatment”) is listed as −0.17 cm; the “Observed change in height from day of treatment compared to control, 4 days post treatment” value (shortened to “Observed change … 4 days post treatment”) is given as −0.72 cm; the “Observed change in height from day of treatment compared to control, 6 days post treatment” value (shortened to “Observed change … 6 days post treatment”) is −1.37 cm; the “Change in height from day of treatment, 2 days post treatment” value amounted to 9.57 cm. Moreover, where the note is “ABA 8.6 ppm alone”, the “Change in height from day of treatment, 4 days post treatment” value was found to be 21.87 cm and the “Change in height from day of treatment, 6 days post treatment” value was found to be 41.66 cm. For the same molecule, for the setting “ABA 10 ppm alone”, the “Observed change … 2 days post treatment” value is −0.11 cm; the “Observed change … 4 days post treatment” value was −0.15 cm; the “Observed change … 6 days post treatment” value is listed as −0.33 cm; the “Change in height from day of treatment, 2 days post treatment” value came out at 9.63 cm. For the same molecule, for the setting “ABA 10 ppm alone”, the “Change in height from day of treatment, 4 days post treatment” value amounted to 22.44 cm and the “Change in height from day of treatment, 6 days post treatment” value is recorded as 42.70 cm. Where the note is “ABA 12 ppm alone”, the “Observed change … 2 days post treatment” value stood at 0.75 cm; the “Observed change … 4 days post treatment” value is −0.49 cm; the “Observed change … 6 days post treatment” value is 0 cm; the “Change in height from day of treatment, 2 days post treatment” value was 10.49 cm. Where the note is “ABA 12 ppm alone”, the “Change in height from day of treatment, 4 days post treatment” value stood at 22.10 cm and the “Change in height from day of treatment, 6 days post treatment” value amounted to 43.03 cm. Moreover, the “Height of the corn compared to the control (in words)” value (applied alone, at both 4 and 6 days post treatment) is reported as “either did not increase or decreased the height”.

For the origin of these results see patent publication US20190223443A1, “Methods to Increase Corn Growth” (Valent BioSciences LLC, priority 2015, published 2019).
